In brackets after ≈: the same amount, converted by molar mass. Several values for one entry are separate records, joined by “and”; a condition that tells them apart may be missing. Equal entries are not always repeated. Where two headings read alike, the source gives them in different places.
Key:
[1] = test system: cyclin K, CDK12, RNA polymerase II phospho-ser2, MYC, MCL-1 protein levels; assay: Immunoblot analysis of protein levels; type: cell-based, H. sapiens; conditions: for RNA polymerase II phospho-ser2 level (immunoblot): OCI-AML5, 5 μM for 5 h
Description: Total proteins were extracted using RIPA buffer (20 mM Tris-HCl pH 7.4, 150 mM NaCl, 5 mM MgCl2, 5 mM EGTA, 60 mM β-glycerophosphate, 0.1% NP40, 0.1% Triton X-114, 1 mM DTT) supplemented with protease inhibitors (cOmplete, EDTA-free protease inhibitor tablets), and quantified by the bicinchoninic acid (BCA) method using a BSA standard curve. Proteins were resolved by SDS-PAGE, transferred onto PVDF membrane, blocked with 5% milk and probed with primary (overnight, 4 °C) and secondary (1 h, room temperature) antibodies.

CDK12-DDB1 interaction = target: T1, CDK12-DDB1 interaction (Homo sapiens, UniProt Q16531+Q9NYV4); assay: NanoLuc Binary Technology CDK12-DDB1 interaction in HEK293 cells; type: cell-based, H. sapiens; conditions: HEK293, monitored over 1 h
T1 construct: The kinase domain of CDK12 was fused to the Large BiT (LgBiT); expressed in transfected cells; host or cells: HEK293
T1 sequence (Q9NYV4 727-1020 limits assumed): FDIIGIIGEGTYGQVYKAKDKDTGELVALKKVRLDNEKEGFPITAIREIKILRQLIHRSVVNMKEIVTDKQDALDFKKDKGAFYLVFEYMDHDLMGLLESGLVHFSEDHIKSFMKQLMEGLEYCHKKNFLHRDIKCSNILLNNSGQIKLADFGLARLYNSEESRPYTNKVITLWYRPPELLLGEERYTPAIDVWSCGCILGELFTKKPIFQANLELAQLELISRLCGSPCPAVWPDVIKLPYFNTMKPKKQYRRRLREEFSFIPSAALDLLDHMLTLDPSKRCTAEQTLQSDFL
T1 sequence (Q16531 whole entry, the tested form may be a part): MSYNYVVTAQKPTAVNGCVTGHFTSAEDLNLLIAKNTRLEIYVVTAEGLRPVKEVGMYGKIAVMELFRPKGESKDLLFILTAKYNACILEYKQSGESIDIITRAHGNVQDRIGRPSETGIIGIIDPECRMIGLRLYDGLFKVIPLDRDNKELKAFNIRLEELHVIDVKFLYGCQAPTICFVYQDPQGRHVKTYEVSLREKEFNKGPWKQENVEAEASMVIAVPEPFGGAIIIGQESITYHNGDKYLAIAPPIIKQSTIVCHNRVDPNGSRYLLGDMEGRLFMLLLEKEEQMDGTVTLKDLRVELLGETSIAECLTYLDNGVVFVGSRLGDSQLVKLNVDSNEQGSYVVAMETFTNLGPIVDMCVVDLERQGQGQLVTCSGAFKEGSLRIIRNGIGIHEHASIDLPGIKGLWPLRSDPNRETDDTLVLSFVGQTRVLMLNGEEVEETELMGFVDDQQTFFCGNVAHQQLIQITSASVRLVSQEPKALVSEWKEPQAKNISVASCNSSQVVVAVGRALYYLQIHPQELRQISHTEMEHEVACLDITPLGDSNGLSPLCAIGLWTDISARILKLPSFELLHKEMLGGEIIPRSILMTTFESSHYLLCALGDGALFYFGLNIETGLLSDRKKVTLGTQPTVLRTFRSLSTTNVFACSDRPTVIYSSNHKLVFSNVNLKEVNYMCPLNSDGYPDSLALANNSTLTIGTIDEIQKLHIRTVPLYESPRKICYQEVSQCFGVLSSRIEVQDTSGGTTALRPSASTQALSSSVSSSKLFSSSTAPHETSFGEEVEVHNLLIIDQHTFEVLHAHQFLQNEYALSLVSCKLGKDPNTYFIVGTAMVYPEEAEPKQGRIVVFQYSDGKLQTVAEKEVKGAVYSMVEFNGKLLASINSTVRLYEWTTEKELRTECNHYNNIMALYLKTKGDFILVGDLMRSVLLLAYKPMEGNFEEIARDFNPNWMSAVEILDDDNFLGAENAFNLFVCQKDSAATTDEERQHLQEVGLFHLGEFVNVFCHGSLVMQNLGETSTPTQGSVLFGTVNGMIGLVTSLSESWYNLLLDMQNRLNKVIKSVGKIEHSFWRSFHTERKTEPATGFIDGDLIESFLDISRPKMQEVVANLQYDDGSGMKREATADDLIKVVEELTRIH
T1 sequence (O75909 whole entry partner, the tested form may be a part): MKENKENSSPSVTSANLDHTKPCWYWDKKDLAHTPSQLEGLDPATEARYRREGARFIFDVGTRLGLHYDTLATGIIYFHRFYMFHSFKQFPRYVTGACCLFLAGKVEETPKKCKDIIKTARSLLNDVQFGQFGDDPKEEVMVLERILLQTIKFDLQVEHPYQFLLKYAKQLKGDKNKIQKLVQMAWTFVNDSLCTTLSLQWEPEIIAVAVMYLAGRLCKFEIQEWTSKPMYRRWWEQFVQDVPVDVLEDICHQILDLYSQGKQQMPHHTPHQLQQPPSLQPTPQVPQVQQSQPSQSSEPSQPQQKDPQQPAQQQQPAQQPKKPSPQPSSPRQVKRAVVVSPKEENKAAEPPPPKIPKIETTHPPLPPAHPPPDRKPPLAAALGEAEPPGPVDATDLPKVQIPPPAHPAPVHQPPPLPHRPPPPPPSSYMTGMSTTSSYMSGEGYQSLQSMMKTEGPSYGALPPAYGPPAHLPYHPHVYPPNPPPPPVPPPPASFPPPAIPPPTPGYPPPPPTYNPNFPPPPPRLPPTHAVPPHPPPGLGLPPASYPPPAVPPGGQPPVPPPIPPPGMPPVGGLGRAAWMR
Source text: Using the NanoBiT PPI MCS starter system vectors, we generated fusion proteins of CDK12 and DDB1 to monitor their interaction in living cells through a structural complementation reporter system for the NanoLuc. The kinase domain of CDK12 was fused to the Large BiT (LgBiT) while DDB1 was fused to the Small Bit (SmBiT), both in N-terminal. The primers used to clone CDK12 and DDB1 in NanoBit vectors by Gibson assembly are as follows: N-LgBiT-CDK12KD-F: […]; N-LgBiT-CDK12KD-STOP-R: […]; N-SmBiT-DDB1-F: […]; N-SmBiT-DDB1-GA-R: […].
Both CDK12-LgBiT and DDB1-SmBiT generated plasmids were then transfected in HEK293 cells using JetPrime transfection reagent according to the manufacturer’s instructions and plated 24 h later in white 384-well plate (20,000 cells /well). After 4 h, 5× D-blue substrate was added to each well, incubated for 5 min at obscurity, prior to addition of compounds of interest at increasing concentrations. Luminescence was monitored for 1 h using the Neo Synergy BioTek plate reader.

[2] = Kinetic solubility measurement (HPLC-UV); type: physicochemical; conditions: aqueous buffer, kinetic from dmso stock, αMEM media, nominal 200 μM, room temperature, triplicate
Description: A 40 μL aliquot of a 10 mM DMSO stock solution of S656 was prepared and diluted in αMEM media to achieve a nominal concentration of 200 μM. The samples were incubated with stirring at 1100 rpm for 24 h at room temperature. From the incubation mixture, 20 μL was pipetted, rinsed in acetonitrile (MeCN) for 5 s, then in water for 5 s. Subsequently, 10 μL was discarded, and the remaining 10 μL was transferred to a mixture containing 10 μL of PBS, 980 μL of quenched solution, and 10 μL of DMSO. Analysis was performed using HPLC equipped with a UV-visible detector (HPLC-UV). Chromatography was conducted under reverse-phase conditions with a column temperature of 55 °C on a Waters XSelect HSS T3 column (2.5 μm, 2.1 ×50 mm). The aqueous solvent (solvent A) was ultrapure water with 0.1% formic acid, and the organic eluent (solvent B) was acetonitrile. The injection volume was 4 μL, and the flow rate was set at 0.6 mL/min.

[3] = test system: OCI-AML5 Cas9 cells (sgDDB1, sgAAVS1); assay: Dose response in inducible OCI-AML5 Cas9 cells expressing sgRNAs targeting DDB1 or AAVS1; type: cell-based, H. sapiens; conditions: 4 days, read-out: S656 IC50
Description: Dose-response assays in primary AML specimens were performed as in chemical screen (see above) with the exception that compounds were tested in serial dilution (8 dilutions, 1:4, 10 μM down to 0.5 nM). Dose-response assays in OCI-AML5 cell line were conducted similarly with the following modifications: 300 cells per well were seeded in 50 μL of cell line media and cell viability was evaluated after 4 days in culture.
Clonal OCI-AML5 cells expressing an inducible Cas9 (Addgene plasmid #50661 (Wang et al, [2014])) were generated and then infected with lentiviruses for constitutive expression of sgRNAs targeting AAVS1 control region (Addgene plasmid #50662 (Wang et al, [2014])) or DDB1 #1 ([…]); #2 ([…]). Cas9 expression is induced by doxycycline (2 μg/mL) and experiments performed subsequently.

tumor growth = test system: tumor growth; design: method as in Dieter et al. (PMID34289372); conditions: orally in mice, 20 mg/kg, 5 days per week; ref Dieter et al. (PMID34289372); cited from earlier work
[4] = OCI-AML5, increasing concentrations, 6 h

In the case of Cc1cccc(Nc2nc(CC(=O)Nc3ncc(C)s3)cs2)n1 [HQ461], the “RNA polymerase II phospho-ser2 level (immunoblot)” value [1] is reported as “reduced levels of RNA polymerase II phospho-ser2” and the “cyclin K protein level (immunoblot)” value [1, 4] is reported as “dose-dependent cyclin K depletion”.
In the case of CN(C)c1ccc(CC(=O)Nc2ncc(SCc3cccnc3)s2)cc1 [S656], the “CDK12-DDB1 interaction in live cells (NanoLuc luminescence)” value (CDK12-DDB1 interaction) is reported as “efficiently induced an interaction between CDK12 and DDB1”, the solubility kinetic at 24 h [2] is reported as 23 µM (≈ 8.84 µg/mL) and the IC50 ([3]; Homo sapiens, OCI-AML-5, 96 h, sgAAVS + DOX) is reported as 923 nM. For the same compound, the IC50 ([3]; Homo sapiens, OCI-AML-5, 96 h, sgAAVS - DOX) was 896 nM, the IC50 ([3]; Homo sapiens, OCI-AML-5, 96 h, sgDDB1 #1 + DOX) was 2170 nM and the IC50 ([3]; Homo sapiens, OCI-AML-5, 96 h, sgDDB1 #1 - DOX) was 1190 nM. For the same compound, the IC50 ([3]; Homo sapiens, OCI-AML-5, 96 h, sgDDB1 #2 + DOX) was 2440 nM, the IC50 ([3]; Homo sapiens, OCI-AML-5, 96 h, sgDDB1 #2 - DOX) was 936 nM and the IC50 ([3]; sgAAVS + DOX) was 1130 nM and 960 nM. The IC50 ([3]; sgAAVS - DOX) was 945 nM and 735 nM, the IC50 ([3]; sgDDB1 #1 + DOX) was 2090 nM and 1910 nM and the IC50 ([3]; sgDDB1 #1 - DOX) was 1020 nM and 964 nM. The IC50 ([3]; sgDDB1 #2 + DOX) was 2380 nM and 1630 nM, the IC50 ([3]; sgDDB1 #2 - DOX) was 1070 nM and 975 nM and the “cyclin K protein level (immunoblot)” value ([1]; 3 primary AML specimens, 5 μM, 5 hours) was “strong depletion of cyclin K”. For the same compound, the “Mcl-1 protein and c-MYC level (immunoblot)” value ([1]; OCI-AML5, 5 μM for 4 h) was “substantial depletion”, the “RNA polymerase II phospho-ser2 level (immunoblot)” value [1] was “reduced levels of RNA polymerase II phospho-ser2” and the “cyclin K protein level (immunoblot)” value [1, 4] was “dose-dependent cyclin K depletion”.
For Cn1cc(-n2cnc3c(NCc4nc5cc(Cl)c(Cl)cc5[nH]4)nc(N4CCOCC4)nc32)cn1 [SR4835], the tolerability in animals (tumor growth) is listed as “well tolerated” and the “tumor growth in vivo” value (tumor growth) is listed as “effectively inhibited tumor growth”.
For CN(C)C/C=C/C(=O)Nc1ccc(C(=O)N2CCC[C@@H](Nc3ncc(Cl)c(-c4c[nH]c5ccccc45)n3)C2)cc1 [THZ531], the “CDK12-DDB1 interaction in live cells (NanoLuc luminescence)” value (CDK12-DDB1 interaction) was “not detectable”.

Reference: PMC12152147, “DDB1 engagement defines the selectivity of S656 analogs for cyclin K degradation over CDK inhibition” (EMBO Reports, 2025)
